Reference: patent US11179398B2, “Purine derivative for use in the treatment or prevention of diseases caused by a nonsense mutation” (MUSÉUM NATIONAL D'HISTOIRE NATURELLE, priority 2016, dated 2021)
Entries after “also recorded” stand apart in the source; their conditions may differ. Where two headings read alike, the source gives them in different places. Marks after values point to notes of the source that are not given here.

Assays:
[1] = test system: luciferase gene carrying a UGA premature stop codon; assay: Luciferase readthrough assay in transfected HeLa cells, UGA construct; assay type: cell-based, human; conditions: for correcting activity of nonsense mutations (luciferase activity): 25 μM, 24 hours; for concentration at which the molecule starts to significantly correct the nonsense mutation: dose-response 0.39 μM to 600 μM; for concentration of maximum correction effectiveness: luciferase activity
Source text: The DMSO represents the negative control.

[2] = test system: Salmonella typhimurium TA98; assay: Compensatory mutation test on bacteria, TA98; conditions: positive control, TA98, with S9, 1.00 μg/well
Protocol: (§5) The test was conducted in the absence or presence of a metabolic solution called S9 mixture (S9 mixture of rat liver treated with aroclor. The concentration of the S9 fraction in the S9 mixture is of 10%).
(§6) The solvent used is dimethyl sulfoxide (DMSO), the volume containing the molecule to be tested or DMSO alone is of 25 μl per well.
(§7) For the tests conducted in the presence of the S9 mixture, 2-anthranine at 1 μg/well for the TA98, TA100 and TA1535 strains or of 5 μg/well for the TA102 or TA1537 strains.
(§8) The treatment in the absence of presence of the S9 mixture was conducted by adding it directly in the wells.

[3] = test system: Salmonella typhimurium TA1537; assay: Compensatory mutation test on bacteria, TA1537; conditions: positive control, TA1537, with S9, 5.0 μg/well
Protocol: as §5, §6, §7, §8

[4] = test system: Salmonella typhimurium TA1535; conditions: positive control
Protocol: (§1) The positive controls used are:
(§2) The experiments were conducted once in triplicate.

[5] = test system: Salmonella typhimurium TA102; conditions: positive control, TA102, with S9, 5.00 μg/well
Protocol: as §1, §2

[6] = test system: Salmonella typhimurium TA100; conditions: positive control
Protocol: as §1, §2

L5178Y TK+/- cells [7] = assay: In vitro test of the micronuclei; conditions: for treated/solvent ratio: positive control
Protocol: (§9) The cells used are L5178Y TK^+/− cells obtained from ATCC (American Type Culture Collection, Manassas, USA) via Biovalley (Marne-la-Vallée, France) for the induction of micronuclei.
(§10) In the test with metabolic activation, the culture medium is supplemented with 5% of the S9 mixture, thus the final concentration of S9 in the treated medium is of 2%.
(§11) The cells were treated for 24 hours in the absence of the S9 mixture or treated for 3 hours followed by 24 hours of culture without treatment when the S9 mixture was present in the culture medium.
(§12) The experiment was conducted and 1000 single-nucleus cells were analysed per culture.
(§13) The assessment of the cytotoxicity was determined by measuring the doubling of the cell population at the end of the experiment.

[8] = test system: luciferase gene carrying a UAA premature stop codon; assay: Luciferase readthrough assay in transfected HeLa cells, UAA construct; conditions: 25 μM
Source text: (§14) The position of the premature stop codon is such that if the protein synthesis stops at the premature stop codon, the synthesised truncated luciferase protein is not functional.

L5178Y TK+/- cells [9] = conditions: mouse
Protocol: as §9, §10, §11, §12, §13

Calu-6 cells [10] = assay: Phenotype of culture cells under white light microscope; assay type: cell-based
[11] = test system: gene TP53 carrying an UGA nonsense mutation at codon 196 (Calu-6 cells); assay: Western blot of p53 re-expression in Calu-6 cells; assay type: cell-based
Protocol: (§3) For the purpose of validating the above screening results, the correction of nonsense mutations was measured for endogenous genes carrying nonsense mutations in an immortalised cell line of lung cancer Calu-6 (ATCC, USA) comprising a UGA mutation in the codon 196 of the gene TP53 (FIG. 2A), an immortalised cell line Caco-2 carrying a UAG mutation at the level of codon 204 (FIG. 2B) and an immortalised cell line Caov-3 carrying a UAA nonsense mutation at the level of codon 136 (FIG. 2C).
(§4) The proteins are extracted from the cell in a lysis buffer, then analysed by SDS-PAGE gel at 10% as previously described in Gonzalez-Hilarion et al. (2012). Briefly, after migration, the proteins are transferred onto a nitrocellulose membrane and placed in the presence of an anti-p53 antibody (D01; Santa-Cruz), and then of a secondary anti-mouse antibody (Jackson Immuno Research).

[12] = test system: gene TP53 carrying an UAG mutation at codon 204 (Caco-2 cells); assay: Western blot of p53 re-expression in Caco-2 cells; assay type: cell-based
Protocol: as §3, §4

Calu-6 cells [13] = assay: Cellular growth and apoptosis measurement; assay type: cell-based
Protocol: Briefly, the cells are removed from their support using typisin and centrifuged for 5 minutes at 200 g.

[14] = test system: NMD (mRNA p53 in Calu-6 cells); assay: NMD inhibition: RT-PCR of p53 mRNA carrying a UGA nonsense mutation; assay type: cell-based; conditions: 6.25 μM, 25 μM, 24 hours
Source text: The RNAs were purified with RNazol (MRC) and underwent a RT-PCR as described in Gonzalez-Hilarion et al. (2012). The resulting cDNA were then amplified after 35 cycles of PCR using the p53 sense primer (5′-[…]-3′; SEQ ID NO: 1), antisense p53 (5′-[…]-3′; SEQ ID NO: 2), sense GAPDH (5′-[…]-3′; SEQ ID NO: 3), antisense GAPDH (5′-[…]-3′; SEQ ID NO: 4).

[15] = test system: gene TP53 carrying an UAA nonsense mutation at codon 136 (Caov-3 cells); assay: Western blot of p53 re-expression in Caov-3 cells; assay type: cell-based
Protocol: as §3, §4

[16] = test system: luciferase gene carrying a UAG premature stop codon; assay: Luciferase readthrough assay in transfected HeLa cells, UAG construct; conditions: 25 μM
Source text: as §14

[17] = test system: p53 target genes p21 and Noxa in Calu-6 cells; assay: Expression of p53 target genes p21 and Noxa by RT-PCR; assay type: cell-based; conditions: 20 hours
Source text: The RNAs were purified with RNazol (MRC) and underwent a RT-PCR as described in Gonzalez-Hilarion et al. (2012). The resulting cDNA were then amplified after 35 cycles of PCR using the p21 mRNA primers (sense: 5′-[…]-3′; SEQ ID NO: 5; antisense 5′-[…]-3′; SEQ ID NO: 6); GADD45 mRNA (sense: 5′-[…]-3′; SEQ ID NO: 7; antisense 5′-[…]-3′; SEQ ID NO: 8); NOXA mRNA (sense: 5′-[…]-3′; SEQ ID NO: 9; antisense 5′-[…]-3′; SEQ ID NO: 10).

[18] = test system: luciferase gene carrying a premature UGA stop codon; assay: Synergy with clitocin, luciferase UGA readthrough assay in HeLa cells; assay type: cell-based, human; conditions: DAP alone at 25 μM
Protocol: The luciferase activity is measured by adding the SteadyLite plus substrate (Perkin Elmer) to the culture medium and the plates are read with a Tristar luminometer (Berthold). The plate is read twice.

[19] = TA1535, without S9, 0.5 μg/well

## Sc1ncc2[nH]cnc2n1 [2-mercaptopurine]
[1]; HeLa cells
  correcting activity of nonsense mutations (luciferase activity): do not have a correcting activity; also recorded: no correction activity

## Nc1ccc2cc3ccccc3cc2c1 [2AM, 2-anthramine]
[2]
  average number of revertants per well: 686.7
  treated/solvent ratio: 98.1
[3]
  average number of revertants per well: 36.0
  treated/solvent ratio: 13.5
[4]; TA1535, with S9, 1.0 μg/well
  average number of revertants per well: 137.7
  treated/solvent ratio: 41.3
[5]
  average number of revertants per well: 91.0
  treated/solvent ratio: 2.0
[6]; TA100, with S9, 1.0 μg/well
  average number of revertants per well: 696.0
  treated/solvent ratio: 17.4

## Sc1ncnc2nc[nH]c12 [6-mercaptopurine]
[1]; HeLa cells
  correcting activity of nonsense mutations (luciferase activity): do not have a correcting activity; also recorded: no correction activity

## O=P1(N(CCCl)CCCl)NCCCO1 (stereo not drawn) [CPA, cyclophosphamide, reference compound]
L5178Y TK+/- cells [7]; with S9 mix, 6 μg/mL
  treated/solvent ratio: 60.0 **

## Nc1nc(N)c2nc[nH]c2n1 [DAP, 2,6-diaminopurine]
[8]
  effect on the UAA codon (luciferase activity): no effect
L5178Y TK+/- cells [9]; 3 h, 0.01 nM
  DP (% of the control substance): 76 % of the control substance
L5178Y TK+/- cells [9]; 3 h, 0.02 nM
  DP (% of the control substance): 89 % of the control substance
L5178Y TK+/- cells [9]; 3 h, 0.04 nM
  DP (% of the control substance): 91 % of the control substance
L5178Y TK+/- cells [9]; 3 h, 0.07 nM
  DP (% of the control substance): 74 % of the control substance
L5178Y TK+/- cells [9]; 3 h, 0.29 nM
  DP (% of the control substance): 73 % of the control substance
L5178Y TK+/- cells [9]; 3 h, 0.58 nM
  DP (% of the control substance): 54 % of the control substance
L5178Y TK+/- cells [9]; 3 h, 2.33 nM
  DP (% of the control substance): 44 % of the control substance
L5178Y TK+/- cells [9]; 3 h, 4.66 nM
  DP (% of the control substance): 40 % of the control substance
L5178Y TK+/- cells [9]; 24 h
  reduction of the doubling of the population: 79-100%
L5178Y TK+/- cells [9]; 24 h, 0.01 nM
  DP (% of the control substance): 91 % of the control substance
L5178Y TK+/- cells [9]; 24 h, 0.02 nM
  DP (% of the control substance): 121 % of the control substance
L5178Y TK+/- cells [9]; 24 h, 0.04 nM
  DP (% of the control substance): 78 % of the control substance
L5178Y TK+/- cells [9]; 24 h, 0.07 nM
  DP (% of the control substance): 97 % of the control substance
[1]; HeLa cells
  correcting activity of nonsense mutations (luciferase activity): able to correct the UGA stop codons much more effectively than G418 or ataluren
  concentration of maximum correction effectiveness: 100 µM
[1]; DAP at 25 μM, HeLa cells
  correction of the nonsense UGA mutation (luciferase activity) compared with G418 at 25 μM: eighteen times more effective
  correction of the nonsense UGA mutation (luciferase activity) compared with G418 at 2400 μM: more than three times more effective
[1]; Homo sapiens, HeLa
  EC50: 54 µM
[1]; both at 6.25 μM
  correction of the UGA nonsense mutation compared with G418: five times higher
[1]
  concentration at which the molecule starts to significantly correct the nonsense mutation: 6.25 µM
Calu-6 cells [10]
  concentration from which more dying cells (round appearance) are observed: ≥ 600 µM
L5178Y TK+/- cells [7]; in the absence of the S9 mixture, 24 hours
  doses with severe cytotoxicity: greater than 0.15 mM
L5178Y TK+/- cells [7]; in the presence of the S9 mixture, 3 hours + 24 hours
  doses with slight cytotoxicity: greater than 0.07 mM
L5178Y TK+/- cells [7]; in the presence or absence of the S9 mixture, listed as 2,6-DAP
  genotoxic effect (frequency of cells containing micronuclei): no genotoxic effect; also recorded: does not induce any damage to the chromosomes or cell machinery involved in the cell division
[11]; 25 μM of DAP versus G418 600 μM
  synthesis of readthrough protein: greater than with G418
[11]; Calu-6 cells, 20 hours, Western blot
  minimal concentration at which wild-size protein p53 (p53 FL) is detected: 6.25 µM
[11]; Calu-6 cells, Western blot
  concentration of maximum production of p53 FL: 25 µM
[12]
  re-expression of protein p53: does not make it possible to re-express the protein
Calu-6 cells [13]; DAP 6.25 μM or 25 μM, D4 to D10
  percentage of apoptotic cells: ≤ 15%
[14]
  inhibition of NMD (stabilising an mRNA carrying a premature stop codon): not an NMD inhibitor
[15]
  re-expression of protein p53: does not make it possible to re-express the protein p53
[16]
  effect on the UAG codon (luciferase activity): no effect
[17]
  concentration from which the expression of the target genes of p53 increases: ≥ 6.25 µM
[18]
  luminescence measured: 50,000

## CN[C@@H]1[C@@H](O)[C@@H](O[C@@H]2[C@@H](O)[C@H](O[C@H]3O[C@H]([C@@H](C)O)[C@@H](O)[C@H](O)[C@H]3N)[C@@H](N)C[C@H]2N)OC[C@]1(C)O [G418]
[1]
  concentration at which the molecule starts to significantly correct the nonsense mutation: 6.25 µM
[1]; HeLa cells
  concentration of maximum correction effectiveness: > 600 µM
Calu-6 cells [13]; G418 600 μM, from the 4th day of culture
  percentage of apoptotic cells: > 30%

## CO[C@@]12[C@H](COC(N)=O)C3=C(C(=O)C(C)=C(N)C3=O)N1C[C@@H]1N[C@@H]12 [MMC, mitomycin C, reference compound]
L5178Y TK+/- cells [7]; without S9 mix
  treated/solvent ratio: 100.0 **

## [N-]=[N+]=[N-] [NaN3, sodium azide]
[4]; [19]
  average number of revertants per well: 206.7
  treated/solvent ratio: 77.5
[6]; TA100, without S9, 1.0 μg/well
  average number of revertants per well: 232.3
  treated/solvent ratio: 5.5

## O=C(O)c1cccc(-c2noc(-c3ccccc3F)n2)c1 [ataluren]
[1]; HeLa cells
  correcting activity of nonsense mutations (luciferase activity): ineffective; also recorded: no correction activity
